Consider one compound from paper PMC9481570, “A small molecule antagonist of SMN disrupts the interaction between SMN and RNAP II” (Nature Communications, 2022).

“And” between values parts separate entries of the source, which are not always exact repeats. Equal entries are not always repeated.

What all share (test): Affinity-purification and mass spectrometry (AP-MS) chemical proteomics, all proteins;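 on Difference: 200 µM free competitor with 20 µM biotin probe overnight in lysate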
Assay type in all cases: binding

The target in experiment [1] is T1, proteins displaced from immobilized biotin-Cmpd 1 pulldowns (U2OS cell lysate) (Homo sapiens, UniProt P13639).
T1 construct: endogenous in cells; host or cells: U2OS
The note with it: GN=EEF2 (P13639).

Experiment [2] deals with T2, proteins displaced from immobilized biotin-Cmpd 1 pulldowns (U2OS cell lysate) (Homo sapiens, UniProt Q96HE9).
T2 construct: endogenous in cells; host or cells: U2OS
T2 sequence (Q96HE9 whole entry): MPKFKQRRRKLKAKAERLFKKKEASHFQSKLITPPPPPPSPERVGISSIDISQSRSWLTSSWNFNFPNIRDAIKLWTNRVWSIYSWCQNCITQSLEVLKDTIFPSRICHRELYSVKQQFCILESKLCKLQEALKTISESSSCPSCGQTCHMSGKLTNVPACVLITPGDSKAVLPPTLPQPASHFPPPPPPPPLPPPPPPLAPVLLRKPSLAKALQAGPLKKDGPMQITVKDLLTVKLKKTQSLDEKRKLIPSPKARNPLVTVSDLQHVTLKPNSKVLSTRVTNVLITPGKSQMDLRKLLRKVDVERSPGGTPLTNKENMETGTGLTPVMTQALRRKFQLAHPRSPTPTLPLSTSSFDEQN
The settings on record: GN=PRR11 (Q96HE9).

Experiment [3] deals with T3, proteins displaced from immobilized biotin-Cmpd 1 pulldowns (U2OS cell lysate) (Homo sapiens, UniProt Q9UI42).
T3 construct: endogenous in cells; host or cells: U2OS
T3 sequence (Q9UI42 114-421): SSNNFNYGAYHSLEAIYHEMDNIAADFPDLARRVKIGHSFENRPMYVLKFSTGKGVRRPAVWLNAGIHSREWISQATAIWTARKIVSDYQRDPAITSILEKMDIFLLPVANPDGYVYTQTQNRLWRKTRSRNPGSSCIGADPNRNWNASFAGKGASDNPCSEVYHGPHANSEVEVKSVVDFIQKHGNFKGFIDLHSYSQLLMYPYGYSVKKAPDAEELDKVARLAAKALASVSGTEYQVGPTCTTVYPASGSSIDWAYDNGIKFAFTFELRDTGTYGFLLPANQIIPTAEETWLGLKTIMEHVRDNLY
The settings on record: GN=CPA4 (Q9UI42).

Experiment [4] deals with T4, proteins displaced from immobilized biotin-Cmpd 1 pulldowns (U2OS cell lysate) (Homo sapiens, UniProt P19367).
T4 construct: endogenous in cells; host or cells: U2OS
The note with it: GN=HK1 (P19367).

Experiment [5] has as its target T5, proteins displaced from immobilized biotin-Cmpd 1 pulldowns (U2OS cell lysate) (Homo sapiens, UniProt Q12873).
T5 construct: endogenous in cells; host or cells: U2OS
The settings on record: GN=CHD3 (Q12873).

Experiment [6] concerns the target T6, proteins displaced from immobilized biotin-Cmpd 1 pulldowns (U2OS cell lysate) (Homo sapiens, UniProt Q15366).
T6 construct: endogenous in cells; host or cells: U2OS
The settings on record: GN=PCBP2 (Q15366).

The target of experiment [7] is T7, proteins displaced from immobilized biotin-Cmpd 1 pulldowns (U2OS cell lysate) (Homo sapiens, UniProt Q13200).
T7 construct: endogenous in cells; host or cells: U2OS
T7 sequence (Q13200 whole entry): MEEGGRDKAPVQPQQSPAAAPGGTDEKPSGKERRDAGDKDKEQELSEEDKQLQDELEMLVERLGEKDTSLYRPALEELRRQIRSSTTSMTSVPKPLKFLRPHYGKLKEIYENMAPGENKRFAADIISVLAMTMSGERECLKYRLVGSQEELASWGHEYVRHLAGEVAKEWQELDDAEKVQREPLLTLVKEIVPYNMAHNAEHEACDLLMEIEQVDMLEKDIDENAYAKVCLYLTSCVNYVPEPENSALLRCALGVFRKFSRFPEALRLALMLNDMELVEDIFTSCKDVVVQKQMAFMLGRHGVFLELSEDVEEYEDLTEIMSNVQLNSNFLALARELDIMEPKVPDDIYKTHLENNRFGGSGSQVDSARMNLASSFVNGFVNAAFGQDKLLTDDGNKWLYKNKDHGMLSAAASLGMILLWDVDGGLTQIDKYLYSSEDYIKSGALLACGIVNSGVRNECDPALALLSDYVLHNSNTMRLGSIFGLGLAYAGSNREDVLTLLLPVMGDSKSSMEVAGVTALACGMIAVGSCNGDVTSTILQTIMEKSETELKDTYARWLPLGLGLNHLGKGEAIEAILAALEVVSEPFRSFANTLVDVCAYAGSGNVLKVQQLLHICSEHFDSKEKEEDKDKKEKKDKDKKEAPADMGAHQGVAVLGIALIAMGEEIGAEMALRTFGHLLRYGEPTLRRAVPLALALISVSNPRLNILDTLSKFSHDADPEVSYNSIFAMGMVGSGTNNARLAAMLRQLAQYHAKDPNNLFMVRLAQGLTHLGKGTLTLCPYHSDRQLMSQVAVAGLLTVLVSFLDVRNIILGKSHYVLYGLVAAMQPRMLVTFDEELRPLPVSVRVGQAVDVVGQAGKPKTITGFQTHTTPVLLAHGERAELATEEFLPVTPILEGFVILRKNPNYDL
The settings on record: GN=PSMD2 (Q13200).

Experiment [8] addresses T8, proteins displaced from immobilized biotin-Cmpd 1 pulldowns (U2OS cell lysate) (Homo sapiens, UniProt P28370).
T8 construct: endogenous in cells; host or cells: U2OS
The note with it: GN=SMARCA1 (P28370).

Experiment [9] concerns the target T9, proteins displaced from immobilized biotin-Cmpd 1 pulldowns (U2OS cell lysate) (Homo sapiens, UniProt P61313).
T9 construct: endogenous in cells; host or cells: U2OS
The note with it: GN=RPL15 (P61313).

In experiment [10] the target is T10, proteins displaced from immobilized biotin-Cmpd 1 pulldowns (U2OS cell lysate) (Homo sapiens, UniProt P09211).
T10 construct: endogenous in cells; host or cells: U2OS
The note with it: GN=GSTP1 (P09211).

T6 sequence (Q15366 whole entry): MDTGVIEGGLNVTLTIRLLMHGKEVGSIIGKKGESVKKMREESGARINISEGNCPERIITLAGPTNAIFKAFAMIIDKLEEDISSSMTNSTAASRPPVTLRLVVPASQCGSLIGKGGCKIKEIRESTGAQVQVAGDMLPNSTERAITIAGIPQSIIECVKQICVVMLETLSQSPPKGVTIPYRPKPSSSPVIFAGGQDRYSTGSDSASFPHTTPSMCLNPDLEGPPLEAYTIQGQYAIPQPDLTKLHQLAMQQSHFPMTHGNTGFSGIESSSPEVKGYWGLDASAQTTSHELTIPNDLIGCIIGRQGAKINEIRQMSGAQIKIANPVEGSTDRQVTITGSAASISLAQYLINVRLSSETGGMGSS
T8 sequence (P28370 whole entry): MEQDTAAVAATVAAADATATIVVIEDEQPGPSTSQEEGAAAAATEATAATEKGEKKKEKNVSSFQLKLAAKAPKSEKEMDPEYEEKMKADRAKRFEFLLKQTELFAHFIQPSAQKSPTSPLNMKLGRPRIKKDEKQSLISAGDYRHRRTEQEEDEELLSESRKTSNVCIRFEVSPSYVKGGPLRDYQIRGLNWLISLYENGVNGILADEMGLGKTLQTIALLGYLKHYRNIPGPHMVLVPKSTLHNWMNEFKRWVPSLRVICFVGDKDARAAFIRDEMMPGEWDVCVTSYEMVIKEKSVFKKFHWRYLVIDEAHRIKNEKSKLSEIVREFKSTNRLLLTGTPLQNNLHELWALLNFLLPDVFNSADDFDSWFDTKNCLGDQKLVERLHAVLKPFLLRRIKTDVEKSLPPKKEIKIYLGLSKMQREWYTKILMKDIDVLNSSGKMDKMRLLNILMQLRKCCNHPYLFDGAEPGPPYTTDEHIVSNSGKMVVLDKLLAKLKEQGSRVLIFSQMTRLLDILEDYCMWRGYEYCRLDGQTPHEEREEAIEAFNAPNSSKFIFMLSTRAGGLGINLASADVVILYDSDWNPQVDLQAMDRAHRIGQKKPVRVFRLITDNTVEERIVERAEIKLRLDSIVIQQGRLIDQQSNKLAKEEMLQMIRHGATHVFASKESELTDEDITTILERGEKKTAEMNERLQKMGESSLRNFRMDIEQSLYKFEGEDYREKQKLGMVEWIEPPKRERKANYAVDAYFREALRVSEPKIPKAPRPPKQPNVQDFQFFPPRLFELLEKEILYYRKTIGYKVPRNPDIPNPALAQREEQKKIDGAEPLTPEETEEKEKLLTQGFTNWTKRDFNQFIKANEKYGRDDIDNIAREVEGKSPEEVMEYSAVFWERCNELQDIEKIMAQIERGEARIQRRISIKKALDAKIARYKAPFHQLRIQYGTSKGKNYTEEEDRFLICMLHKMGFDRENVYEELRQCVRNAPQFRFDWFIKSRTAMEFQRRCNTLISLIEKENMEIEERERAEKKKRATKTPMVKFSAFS
T5 sequence (Q12873 whole entry): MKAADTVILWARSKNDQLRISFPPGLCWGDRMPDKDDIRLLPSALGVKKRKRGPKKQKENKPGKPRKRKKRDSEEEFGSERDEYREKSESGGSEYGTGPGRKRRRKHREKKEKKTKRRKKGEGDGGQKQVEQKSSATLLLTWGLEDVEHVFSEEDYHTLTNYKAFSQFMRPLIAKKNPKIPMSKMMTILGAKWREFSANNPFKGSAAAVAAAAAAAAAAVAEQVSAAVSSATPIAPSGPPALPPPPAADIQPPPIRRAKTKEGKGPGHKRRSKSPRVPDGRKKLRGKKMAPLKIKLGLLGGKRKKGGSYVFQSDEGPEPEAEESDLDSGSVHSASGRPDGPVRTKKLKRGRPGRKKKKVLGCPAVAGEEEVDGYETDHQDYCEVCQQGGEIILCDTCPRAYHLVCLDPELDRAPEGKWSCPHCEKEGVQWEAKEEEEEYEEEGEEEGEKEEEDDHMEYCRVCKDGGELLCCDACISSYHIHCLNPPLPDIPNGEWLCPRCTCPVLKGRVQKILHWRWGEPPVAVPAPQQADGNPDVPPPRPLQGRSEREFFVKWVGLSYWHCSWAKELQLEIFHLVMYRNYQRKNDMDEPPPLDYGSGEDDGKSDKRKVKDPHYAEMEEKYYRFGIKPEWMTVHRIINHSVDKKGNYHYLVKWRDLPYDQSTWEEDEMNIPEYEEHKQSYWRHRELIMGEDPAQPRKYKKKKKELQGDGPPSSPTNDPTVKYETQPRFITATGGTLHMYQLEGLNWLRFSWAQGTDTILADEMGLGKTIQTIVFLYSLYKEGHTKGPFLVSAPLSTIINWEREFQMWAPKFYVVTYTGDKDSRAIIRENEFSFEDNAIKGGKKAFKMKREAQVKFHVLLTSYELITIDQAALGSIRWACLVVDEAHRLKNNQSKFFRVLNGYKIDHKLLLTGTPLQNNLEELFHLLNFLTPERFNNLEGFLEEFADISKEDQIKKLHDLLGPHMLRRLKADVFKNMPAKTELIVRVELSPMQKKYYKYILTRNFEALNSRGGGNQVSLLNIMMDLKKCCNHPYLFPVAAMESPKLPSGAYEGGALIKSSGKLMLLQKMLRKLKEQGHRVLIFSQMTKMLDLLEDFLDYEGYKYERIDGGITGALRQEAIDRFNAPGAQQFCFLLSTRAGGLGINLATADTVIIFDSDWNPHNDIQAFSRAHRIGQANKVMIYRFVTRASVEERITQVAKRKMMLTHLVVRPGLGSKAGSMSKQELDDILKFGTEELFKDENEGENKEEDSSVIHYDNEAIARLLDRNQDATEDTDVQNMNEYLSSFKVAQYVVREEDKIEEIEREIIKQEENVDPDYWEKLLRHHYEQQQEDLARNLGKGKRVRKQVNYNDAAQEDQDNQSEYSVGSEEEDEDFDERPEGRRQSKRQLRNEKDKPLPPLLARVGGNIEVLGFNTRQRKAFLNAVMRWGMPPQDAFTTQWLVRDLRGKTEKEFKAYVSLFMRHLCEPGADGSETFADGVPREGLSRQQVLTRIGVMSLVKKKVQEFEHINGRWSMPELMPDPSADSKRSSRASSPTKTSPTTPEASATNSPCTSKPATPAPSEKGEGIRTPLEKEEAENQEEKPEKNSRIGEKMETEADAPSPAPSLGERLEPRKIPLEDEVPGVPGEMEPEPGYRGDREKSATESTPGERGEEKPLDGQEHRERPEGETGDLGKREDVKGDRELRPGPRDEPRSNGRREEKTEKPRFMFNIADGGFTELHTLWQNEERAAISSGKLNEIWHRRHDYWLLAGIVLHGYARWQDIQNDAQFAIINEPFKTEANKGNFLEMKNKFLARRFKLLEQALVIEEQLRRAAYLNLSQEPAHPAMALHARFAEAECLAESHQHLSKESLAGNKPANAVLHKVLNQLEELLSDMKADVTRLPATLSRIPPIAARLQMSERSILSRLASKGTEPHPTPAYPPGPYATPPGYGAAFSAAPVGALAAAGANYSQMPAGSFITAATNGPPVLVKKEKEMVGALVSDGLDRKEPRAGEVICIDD

Turning to `Cn1c2c(c(=N)c3c1CCC3)CCC2` [Compound 1, 4-methyl-2,3,4,5,6,7-hexahydrodicyclopenta[b,e]pyridin-8(1H)-imine], the Difference in experiment [1] (Cmpd minus DMSO, -LOG(P-value) 1.71036) is on record as -0.7791; in experiment [2] (Cmpd minus DMSO, -LOG(P-value) 0.979867), 2.154; in experiment [3] (Cmpd minus DMSO, -LOG(P-value) 1.07291), -1.567; in experiment [4] (Cmpd minus DMSO, -LOG(P-value) 0.855582), 0.9514; in experiment [5] (Cmpd minus DMSO, -LOG(P-value) 0.756951), -1.815; in experiment [6] (Cmpd minus DMSO, -LOG(P-value) 0.939549), -2.733. In addition, the Difference is reported as -0.9512 in [7] (Cmpd minus DMSO, -LOG(P-value) 1.86828); 1.73 in [8] (Cmpd minus DMSO, -LOG(P-value) 1.24318); -0.7361 in experiment [9] (Cmpd minus DMSO, -LOG(P-value) 0.777225); -2.301 in experiment [10] (Cmpd minus DMSO, -LOG(P-value) 0.706691). The “iBAQ Cmpd” value in [1] (replicates 1-3) was 17.772 and 17.7165 and 17.939; in experiment [2] (replicates 1-3) it was 17.2458 and 16.9213 and 18.1218; in experiment [3] (replicates 1-3), 17.2042 and 16.9875 and 16.0895; in experiment [4] (replicates 1-3), 18.5229 and 17.0452 and 17.0803; in [5] (replicates 1-3), 14.8034 and 14.2721 and 13.9438; in experiment [6] (replicates 1-3) it was 15.8606 and 15.1154 and 18.8903. The “iBAQ Cmpd” value is 17.2697 and 17.2993 and 16.9257 in experiment [7] (replicates 1-3); 17.0232 and 15.8844 and 17.1364 in experiment [8] (replicates 1-3); 21.3956 and 22.1107 and 21.8582 in experiment [9] (replicates 1-3); 19.2888 and 14.7277 and 18.6327 in [10] (replicates 1-3).
